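Exposure lasted 48 hours, with cells grown in 96-well plates and compounds tested at five concentrations. At the GI50, growth is halved. TGI: total growth inhibition.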
Legend:
Assay in all cases: DTP human tumour cell line panel, 48 h
[1] = system: MDA-MB-468 breast
[2] = system: 786-0 renal
[3] = system: A498 renal
[4] = system: A549 NSCLC
[5] = system: ACHN renal
[6] = system: BT-549 breast
[7] = system: CAKI-1 renal
[8] = system: CCRF-CEM leukemia
[9] = system: COLO 205 colon
[10] = system: DU-145 prostate
[11] = system: EKVX NSCLC
[12] = system: HCC-2998 colon
[13] = system: HCT-116 colon
[14] = system: HCT-15 colon
[15] = system: HL-60(TB) leukemia
[16] = system: HOP-62 NSCLC
[17] = system: HOP-92 NSCLC
[18] = system: HS 578T breast
[19] = system: HT29 colon
[20] = system: IGROV1 ovarian
[21] = system: K-562 leukemia
[22] = system: KM12 colon
[23] = system: LOX IMVI melanoma
[24] = system: M14 melanoma
[25] = system: MALME-3M melanoma
[26] = system: MCF7 breast
[27] = system: MDA-MB-231 breast
[28] = system: MDA-MB-435
[29] = system: MOLT-4 leukemia
[30] = system: NCI-H226 lung
[31] = system: NCI-H23 lung
[32] = system: NCI-H460 lung
[33] = system: NCI-H522 lung
[34] = system: OVCAR-3 ovarian
[35] = system: OVCAR-4 ovarian
[36] = system: OVCAR-5 ovarian
[37] = system: OVCAR-8 ovarian
[38] = system: PC-3 prostate
[39] = system: RPMI-8226 leukemia
[40] = system: RXF 393 renal
[41] = system: SF-268 CNS
[42] = system: SF-295 CNS
[43] = system: SF-539 CNS
[44] = system: SK-MEL-2 melanoma
[45] = system: SK-MEL-28 melanoma
[46] = system: SK-MEL-5 melanoma
[47] = system: SK-OV-3 ovarian
[48] = system: SN12C renal
[49] = system: SNB-19 CNS
[50] = system: SNB-75 CNS
[51] = system: SR leukemia
[52] = system: SW-620 colon
[53] = system: T-47D breast
[54] = system: TK-10 renal
[55] = system: U251 CNS
[56] = system: UACC-257 melanoma
[57] = system: UACC-62 melanoma
[58] = system: UO-31 renal

CS(=O)(=O)Nc1ccc(Nc2c3ccccc3nc3cc(N)ccc23)cc1
GI50 [1]: 0.106 µM | TGI [1]: 0.973 µM

Oc1ccccc1N=Cc1c(O)ccc2ccccc12
GI50 [1]: 7.09 µM | TGI [1]: 29.5 µM

COc1ccc(C(=O)n2nc(/C=C/c3ccc(O)c(OC)c3)cc2/C=C/c2ccc(O)c(OC)c2)cc1
GI50 [1]: 0.37 µM | TGI [1]: 2 µM

COc1cc(-c2cc(/C=C/C(=O)c3ccc(N)cc3)[nH]n2)cc(OC)c1OC
GI50 [1]: 1.01 µM | TGI [1]: 2.91 µM

Cn1c2c(c3ccc(-c4ccn[nH]4)cc3c1=O)C(=O)c1ccccc1-2
GI50 [1]: 4.9 µM | TGI [1]: > 100 µM

CN1C(=O)N(C)C2C1NN=c1s/c(=C\c3ccccc3F)c(=O)n12 (stereo unspecified)
GI50 [1]: 0.211 µM | TGI [1]: > 100 µM

COC(=O)C1CCC(NC(=O)c2csc([C@@H](C[C@H](C(C)C)N(C)C(=O)[C@@H](NC(=O)[C@H]3CCCCN3C)C(C)C)OC(C)=O)n2)CC1 (stereo partly specified)
GI50 [1]: 0.00245 µM | TGI [1]: 0.00683 µM

CN1CCN(c2ccc(N3Cc4ccccc4OC4=C3C(=O)c3c(O)ccc(O)c3C4=O)cn2)CC1
GI50 [1]: 0.229 µM | TGI [1]: 0.578 µM

O=C1/C(=C/c2ccc(O)c(O)c2)COc2ccc(-c3ccccc3)cc21
GI50 [1]: 0.731 µM | TGI [1]: 2.64 µM

O=C1c2ccccc2C(=O)c2c1ccc(C(Br)Br)c2Cl
GI50 [1]: 2 µM | TGI [1]: 4.54 µM

CCOC(=O)C1=C(N)CCC1C (stereo unspecified)
GI50 [1]: > 100 µM | TGI [1]: > 100 µM

C[C@H](O)CNc1cc(-c2[nH]c3cccnc3c2-c2ccc(F)cc2)ccn1
GI50 [1]: 7.54 µM | TGI [1]: > 25 µM

Cc1nc(Nc2nc(C)c3ccc(OCCN4CCOCC4)cc3n2)[nH]c(=O)c1C
GI50 [2]: 3.75 µM | TGI [2]: 18.2 µM | GI50 [3]: 2.16 µM | TGI [3]: 6.52 µM | GI50 [4]: 3.37 µM | TGI [4]: 15.4 µM | GI50 [5]: 3.85 µM | TGI [5]: 19.4 µM | GI50 [6]: 3.55 µM | TGI [6]: 12.1 µM | GI50 [7]: 3.66 µM | TGI [7]: 24.2 µM | GI50 [8]: 3.26 µM | TGI [8]: 13.8 µM | GI50 [9]: 2.25 µM | TGI [9]: 5.58 µM | GI50 [10]: 2.94 µM | TGI [10]: 9.03 µM | GI50 [11]: 4.15 µM | TGI [11]: 26.7 µM | GI50 [12]: 3.1 µM | TGI [12]: 5.43 µM | GI50 [13]: 3.09 µM | TGI [13]: 12.3 µM | GI50 [14]: 3.15 µM | TGI [14]: 18.8 µM | GI50 [15]: 2.27 µM | TGI [15]: 6.83 µM | GI50 [16]: 4.59 µM | TGI [16]: 20.4 µM | GI50 [17]: 2.91 µM | TGI [17]: 9.9 µM | GI50 [18]: 3.79 µM | TGI [18]: 23.6 µM | GI50 [19]: 3.01 µM | TGI [19]: 9.94 µM | GI50 [20]: 3.1 µM | TGI [20]: 12.6 µM | GI50 [21]: 3.31 µM | TGI [21]: 27.4 µM | GI50 [22]: 3.14 µM | TGI [22]: 10.8 µM | GI50 [23]: 2.39 µM | TGI [23]: 6.72 µM | GI50 [24]: 4.36 µM | TGI [24]: 17.4 µM | GI50 [25]: 2.38 µM | TGI [25]: 9.06 µM | GI50 [26]: 4.15 µM | TGI [26]: > 100 µM | GI50 [27]: 2.45 µM | TGI [27]: 6.05 µM | GI50 [28]: 4.28 µM | TGI [28]: 15.8 µM | GI50 [1]: 1.72 µM | TGI [1]: 3.8 µM | GI50 [29]: 3.05 µM | TGI [29]: 22 µM | GI50 [30]: 2.86 µM | TGI [30]: 11.1 µM | GI50 [31]: 2.53 µM | TGI [31]: 5.91 µM | GI50 [32]: 2.94 µM | TGI [32]: 9.12 µM | GI50 [33]: 2.45 µM | TGI [33]: 8.57 µM | GI50 [34]: 3.12 µM | TGI [34]: 13.7 µM | GI50 [35]: 2.54 µM | TGI [35]: 7.74 µM | GI50 [36]: 4.22 µM | TGI [36]: 27.5 µM | GI50 [37]: 4.04 µM | TGI [37]: 17.9 µM | GI50 [38]: 4.04 µM | TGI [38]: 27 µM | GI50 [39]: 2.79 µM | TGI [39]: 8.33 µM | GI50 [40]: 1.95 µM | TGI [40]: 4.47 µM | GI50 [41]: 3.58 µM | TGI [41]: 19 µM | GI50 [42]: 4.43 µM | TGI [42]: 57.9 µM | GI50 [43]: 2.82 µM | TGI [43]: 8.86 µM | GI50 [44]: 2.03 µM | TGI [44]: 5.13 µM | GI50 [45]: 3.64 µM | TGI [45]: 14.3 µM | GI50 [46]: 2.29 µM | TGI [46]: 6.87 µM | GI50 [47]: 4.67 µM | TGI [47]: 24.8 µM | GI50 [48]: 3.46 µM | TGI [48]: 19.5 µM | GI50 [49]: 4.66 µM | TGI [49]: 24.6 µM | GI50 [50]: 1.92 µM | TGI [50]: 8.83 µM | GI50 [51]: 3.03 µM | TGI [51]: 10.7 µM | GI50 [52]: 3.39 µM | TGI [52]: 20.7 µM | GI50 [53]: 4.36 µM | TGI [53]: 43.5 µM | GI50 [54]: 2.99 µM | TGI [54]: 22.4 µM | GI50 [55]: 4.16 µM | TGI [55]: 51.4 µM | GI50 [56]: 4.03 µM | TGI [56]: 25.9 µM | GI50 [57]: 2.56 µM | TGI [57]: 8.19 µM | GI50 [58]: 2.95 µM | TGI [58]: 15.2 µM

O=C(COc1cccc(/C=C2/Oc3ccccc3C2=O)c1)Nc1nccs1
GI50 [1]: 2.16 µM | TGI [1]: 9.07 µM

Clc1ccc(N2CCN(CCCN3CCN(c4cccc(Cl)c4)CC3)CC2)cc1
GI50 [1]: 1.63 µM | TGI [1]: 10.8 µM

COc1ccccc1/C=C/C=N/NC1=NC2C(S1)N(C)C(=O)N2C (stereo unspecified)
GI50 [1]: 2.13 µM | TGI [1]: 7.46 µM

O=C(O[C@H]1CN[C@H](C#Cc2cc3ncnc(Nc4ccc5c(cnn5Cc5ccccc5)c4)c3s2)C1)N1CCOCC1
GI50 [1]: 0.209 µM | TGI [1]: 2.58 µM

CC(C)CCC[C@@H](C)[C@H]1CCC2C3=CCn4c(=O)ccc(=O)n4C3CC[C@@]21C (stereo partly specified)
GI50 [1]: 0.887 µM | TGI [1]: 2.98 µM

Cc1cc(C(=O)NC(C)(C)C)cc(C#Cc2ccc3c4c(oc3c2)C(C)(C)c2cc(NS(C)(=O)=O)ccc2C4=O)n1
GI50 [1]: 3.18 µM | TGI [1]: > 100 µM

CCN(CC)CCNC(=O)c1cn2ncnc(Oc3ccc(NC(=O)Nc4ccc(Cl)c(C(F)(F)F)c4)cc3)c2c1C
GI50 [1]: 1.67 µM | TGI [1]: 3.29 µM

Cc1ccc(-c2cc3c(NC(=O)C4CC4)ncnc3o2)cc1
GI50 [1]: > 25 µM | TGI [1]: > 25 µM

Cc1cc(C)c(C#N)c(SCC(=O)c2sc3c(C#N)c(C)cc(C)[n+]3c2[O-])n1
GI50 [1]: 0.266 µM

CCN(CC)CCOc1nc2c3ccc(Cl)cc3nn2c2ccccc12
GI50 [1]: 1.51 µM | TGI [1]: 3.57 µM

Cc1ccc(NCCN2CCCCC2)c2c(=O)c3ccccc3sc12
GI50 [1]: 2.38 µM | TGI [1]: 5.19 µM

CCOC(=O)c1ccc2[nH]c(O)c(C(=Nc3ccc(N(C)C(=O)CN4CCN(C)CC4)cc3)c3ccccc3)c2c1
GI50 [1]: 0.827 µM | TGI [1]: 2.29 µM

CN(C)c1ccc(-c2c(NC(C)(C)C)nc3c(OCCc4ccccc4)cccn23)cc1
GI50 [1]: 2.29 µM | TGI [1]: 6.28 µM

O=C(Nc1ccc(Cl)cc1)Nc1ccc(Oc2nncc3ccccc23)cc1
GI50 [1]: 0.752 µM | TGI [1]: 2.52 µM

CSCCC(NC(=O)CNC(=O)C(CC(=O)O)NC(=O)C(NC(=O)C(NC(=O)C(NC(=O)CNC(=O)C(CCC(N)=O)NC(=O)C(CCSC)NC(=O)C(CC(=O)O)NC(=O)C(C)NC(=O)C(C)NC(=O)C(NC(=O)C(CO)NC(=O)C(N)CC(C)C)C(C)O)C(C)C)C(C)C)C(C)O)C(=O)NC(C)C(=O)NC(CO)C(=O)NCC(=O)NC(CC(C)C)C(=O)NC(CC(=O)O)C(=O)NC(CCCCN)C(=O)NC(CC(=O)O)C(=O)NC(Cc1ccc(O)cc1)C(=O)NC(CC(C)C)C(=O)NC(CCCCN)C(=O)N1CCCC1C(=O)NC(CC(=O)O)C(=O)NC(CC(=O)O)C(=O)O (stereo unspecified)
GI50 [1]: > 82.5 µM | TGI [1]: > 82.5 µM

CCc1c2c(nc3ccc(OC(=O)NCc4ccc(B5OC(C)(C)C(C)(C)O5)cc4)cc13)-c1cc3c(c(=O)n1C2)COC(=O)[C@]3(O)CC
GI50 [1]: < 0.0126 µM | TGI [1]: 0.0894 µM

Reference: PubChem BioAssay (NCI)
